# Measured values from patent publication US20230172973A1, “METHODS AND COMPOSITIONS FOR TREATING AND COMBATTING TUBERCULOSIS” (THIRTY RESPIRATORY LIMITED, priority 2020, published 2023).
# Assays:
# [1] = system: SARS-CoV-2 clinical isolate; experiment: SARS-CoV-2 inhibition (virus yield reduction, TCID50 titration); assay type: cell-based
# Method: At time 0 hr, Vero E6 cells were infected with virus in presence of the formulation or controls and incubated for 1 hour. After this incubation period the inoculum was removed and the cells were washed. Fresh formulation or controls were then added to the washed cells. At 24 hours post infection, Vero E6 cell supernatants were harvested and titrated, and the virus titration was incubated for 6 days prior to readout to determine any virus yield reduction. Separate tests were performed at four MOIs including 3.0 and 0.3, although only those two MOIs were titrated. The readout was by crystal violet (cell monolayer) staining, followed by CPE scoring.
# Vero E6 cells = conditions: 2 hr and 24 hr
Structure (SMILES),"SARS-CoV-2 titre (FIG. 33, Run 1) ([1]; MOI 3.0, 24 hours incubation)","SARS-CoV-2 titre (FIG. 34, Run 2) ([1]; MOI 3.0 and MOI 0.3, 48 hours incubation)","In vitro antiviral action against SARS-CoV-2 (FIGS. 33 and 34) ([1]; Vero E6 cells, MOI 3.0 and 0.3)",Cytotoxicity on the LDH assay (FIG. 32) (Vero E6 cells)
"CCN(CC)CCCC(C)Nc1ccnc2cc(Cl)ccc12 (stereo not shown) [chloroquine, Chloroquine phosphate]",limit of detection,limit of detection,,
"O=C(O)CC(O)(CC(=O)O)C(=O)O [citric acid pH 5.8, citric acid]",,,high in vitro antiviral action,low cytotoxicity
